Test results reported in patent publication US7074789B2, “Kinase inhibitors” (Amgen Inc., priority 1999, dated 2006).

Experiments:
Type in all cases: biochemical
Tek = target: T1, Tek (Homo sapiens, UniProt Q02763); test: Kinase inhibition assay (33P transfer), Tek; settings: read-out: Tek-1
T1 construct: Kinases are expressed as either kinase domains or full length constructs; made in house
How it was run: (§1)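 Each enzyme, purified to near homogeneity by affinity chromatography, was incubated with ATP carrying 33P and a substrate polymer fixed to the plate. Unbound label was removed with dilute phosphoric acid (0.5%) before adding scintillant and counting. Potency is given as the compound level cutting label uptake by 50%.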

Lyn = target: T2, Lyn (Homo sapiens, UniProt P07948); test: Kinase inhibition assay (33P transfer), Lyn; settings: Table 6, Lyn-1 kinase inhibition class
T2 construct: Kinases are expressed as either kinase domains or full length constructs; made in house
How it was run: as §1

Kdr = target: T3, Kdr (Homo sapiens, UniProt P35968); test: Kinase inhibition assay (33P transfer), Kdr; settings: read-out: KDR-1
T3 construct: Kinases are expressed as either kinase domains or full length constructs; made in house
How it was run: (§2)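 Activity was read as 33P incorporation, counted by liquid scintillation after a 0.5% phosphoric acid wash, into poly(Glu,Tyr) 4:1 or poly(Arg,Ser) 3:1 substrates coated on plates. Enzymes were tagged (GST or polyHis) kinase domains or full-length proteins from bacterial or insect-cell expression, sometimes with regulatory polypeptides.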

Src = target: T4, Src (Homo sapiens, UniProt P12931); test: Kinase inhibition assay (33P transfer), Src; settings: Table 6, Src-1 kinase inhibition class
T4 construct: Kinases are expressed as either kinase domains or full length constructs; made in house
T4 sequence (P12931 whole entry, species assumed, the tested form may be a part): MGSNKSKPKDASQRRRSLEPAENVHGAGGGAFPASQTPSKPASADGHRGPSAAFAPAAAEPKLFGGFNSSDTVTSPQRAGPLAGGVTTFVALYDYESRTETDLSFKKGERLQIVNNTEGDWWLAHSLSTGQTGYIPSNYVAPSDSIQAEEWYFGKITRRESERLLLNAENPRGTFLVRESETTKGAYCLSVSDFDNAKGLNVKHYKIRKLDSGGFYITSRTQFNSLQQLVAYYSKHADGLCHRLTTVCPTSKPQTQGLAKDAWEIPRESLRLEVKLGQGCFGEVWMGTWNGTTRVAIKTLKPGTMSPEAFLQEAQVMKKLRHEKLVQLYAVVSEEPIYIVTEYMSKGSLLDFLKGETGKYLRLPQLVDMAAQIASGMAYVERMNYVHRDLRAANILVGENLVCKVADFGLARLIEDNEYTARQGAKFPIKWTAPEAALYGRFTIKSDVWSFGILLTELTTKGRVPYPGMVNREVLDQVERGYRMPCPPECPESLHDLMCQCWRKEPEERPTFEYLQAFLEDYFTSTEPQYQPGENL
How it was run: as §1

PDGFRB = target: T5, PDGFRB (Homo sapiens, UniProt P09619); test: Kinase inhibition assay (33P transfer), PDGFRB; settings: read-out: PDGFRB-1
T5 construct: Kinases are expressed as either kinase domains or full length constructs; made in house
T5 sequence (P09619 33-1106, species assumed): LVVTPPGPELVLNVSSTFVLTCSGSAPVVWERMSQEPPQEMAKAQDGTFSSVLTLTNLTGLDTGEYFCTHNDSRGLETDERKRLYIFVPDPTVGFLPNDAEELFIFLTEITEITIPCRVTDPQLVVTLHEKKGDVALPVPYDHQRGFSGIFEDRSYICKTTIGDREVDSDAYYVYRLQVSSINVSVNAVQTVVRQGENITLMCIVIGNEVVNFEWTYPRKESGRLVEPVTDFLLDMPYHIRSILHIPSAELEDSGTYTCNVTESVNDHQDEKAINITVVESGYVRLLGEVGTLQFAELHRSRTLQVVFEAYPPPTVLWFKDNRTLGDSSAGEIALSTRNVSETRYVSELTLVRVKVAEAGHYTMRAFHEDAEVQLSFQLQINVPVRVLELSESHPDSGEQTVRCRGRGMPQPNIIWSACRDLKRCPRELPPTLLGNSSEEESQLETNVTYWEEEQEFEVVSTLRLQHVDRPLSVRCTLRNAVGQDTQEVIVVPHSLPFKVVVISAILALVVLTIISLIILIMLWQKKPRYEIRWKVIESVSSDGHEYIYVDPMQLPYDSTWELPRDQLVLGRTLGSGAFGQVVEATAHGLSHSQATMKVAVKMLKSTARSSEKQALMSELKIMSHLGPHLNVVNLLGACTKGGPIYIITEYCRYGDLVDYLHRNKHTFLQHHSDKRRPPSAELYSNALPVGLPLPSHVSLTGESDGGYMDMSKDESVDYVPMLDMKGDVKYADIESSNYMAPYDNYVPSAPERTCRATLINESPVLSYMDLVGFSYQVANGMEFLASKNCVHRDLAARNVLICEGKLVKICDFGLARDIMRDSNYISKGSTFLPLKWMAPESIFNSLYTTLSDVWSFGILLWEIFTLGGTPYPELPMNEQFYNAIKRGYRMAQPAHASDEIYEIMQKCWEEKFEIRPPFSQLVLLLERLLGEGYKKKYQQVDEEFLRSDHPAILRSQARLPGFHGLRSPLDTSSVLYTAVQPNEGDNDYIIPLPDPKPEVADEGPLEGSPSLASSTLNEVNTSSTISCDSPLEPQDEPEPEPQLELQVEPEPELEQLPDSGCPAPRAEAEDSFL

Itk = target: T6, Itk (Homo sapiens, UniProt Q08881); test: Kinase inhibition assay (33P transfer), Itk; settings: read-out: Itk-1
T6 construct: Kinases are expressed as either kinase domains or full length constructs; made in house
T6 sequence (Q08881 1-620): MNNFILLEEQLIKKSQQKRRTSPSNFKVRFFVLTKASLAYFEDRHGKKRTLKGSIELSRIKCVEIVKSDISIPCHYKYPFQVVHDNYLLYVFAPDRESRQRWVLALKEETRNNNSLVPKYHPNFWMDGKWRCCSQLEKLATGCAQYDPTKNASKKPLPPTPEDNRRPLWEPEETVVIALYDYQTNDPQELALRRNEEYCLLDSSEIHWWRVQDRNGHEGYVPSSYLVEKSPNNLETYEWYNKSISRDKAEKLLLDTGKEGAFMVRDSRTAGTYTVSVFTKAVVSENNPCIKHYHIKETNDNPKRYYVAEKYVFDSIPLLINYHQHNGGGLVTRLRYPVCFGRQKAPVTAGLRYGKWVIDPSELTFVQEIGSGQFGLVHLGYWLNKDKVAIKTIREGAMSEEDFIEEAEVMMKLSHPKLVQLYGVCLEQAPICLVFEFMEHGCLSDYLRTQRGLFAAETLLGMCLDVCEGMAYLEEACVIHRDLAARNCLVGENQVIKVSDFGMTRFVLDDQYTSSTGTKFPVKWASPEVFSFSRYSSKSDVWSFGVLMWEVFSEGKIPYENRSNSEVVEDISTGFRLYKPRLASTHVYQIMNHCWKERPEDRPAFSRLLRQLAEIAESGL
How it was run: as §1

FGFR1 = target: T7, FGFR1 (Homo sapiens, UniProt P11362); test: Kinase inhibition assay (33P transfer), FGFR1; settings: read-out: FGFR1-1
T7 construct: Kinases are expressed as either kinase domains or full length constructs; made in house

Ret-1 = target: T8, Ret-1 (Homo sapiens, UniProt P07949); test: Kinase inhibition assay (33P transfer), Ret; settings: Table 6, Ret-1 kinase inhibition class
T8 construct: Kinases are expressed as either kinase domains or full length constructs; made in house

EGFR = target: T9, EGFR (Homo sapiens, UniProt P00533); test: Kinase inhibition assay (33P transfer), EGFR; settings: Table 2, kinase inhibition class; read-out: EGFR-1
T9 construct: Kinases are expressed as either kinase domains or full length constructs; made in house
How it was run: as §1

ErbB4 = target: T10, ErbB4 (Homo sapiens, UniProt Q15303); test: Kinase inhibition assay (33P transfer), ErbB4; settings: read-out: ErbB4-1
T10 construct: Kinases are expressed as either kinase domains or full length constructs; made in house
T10 sequence (Q15303 26-1308, species assumed): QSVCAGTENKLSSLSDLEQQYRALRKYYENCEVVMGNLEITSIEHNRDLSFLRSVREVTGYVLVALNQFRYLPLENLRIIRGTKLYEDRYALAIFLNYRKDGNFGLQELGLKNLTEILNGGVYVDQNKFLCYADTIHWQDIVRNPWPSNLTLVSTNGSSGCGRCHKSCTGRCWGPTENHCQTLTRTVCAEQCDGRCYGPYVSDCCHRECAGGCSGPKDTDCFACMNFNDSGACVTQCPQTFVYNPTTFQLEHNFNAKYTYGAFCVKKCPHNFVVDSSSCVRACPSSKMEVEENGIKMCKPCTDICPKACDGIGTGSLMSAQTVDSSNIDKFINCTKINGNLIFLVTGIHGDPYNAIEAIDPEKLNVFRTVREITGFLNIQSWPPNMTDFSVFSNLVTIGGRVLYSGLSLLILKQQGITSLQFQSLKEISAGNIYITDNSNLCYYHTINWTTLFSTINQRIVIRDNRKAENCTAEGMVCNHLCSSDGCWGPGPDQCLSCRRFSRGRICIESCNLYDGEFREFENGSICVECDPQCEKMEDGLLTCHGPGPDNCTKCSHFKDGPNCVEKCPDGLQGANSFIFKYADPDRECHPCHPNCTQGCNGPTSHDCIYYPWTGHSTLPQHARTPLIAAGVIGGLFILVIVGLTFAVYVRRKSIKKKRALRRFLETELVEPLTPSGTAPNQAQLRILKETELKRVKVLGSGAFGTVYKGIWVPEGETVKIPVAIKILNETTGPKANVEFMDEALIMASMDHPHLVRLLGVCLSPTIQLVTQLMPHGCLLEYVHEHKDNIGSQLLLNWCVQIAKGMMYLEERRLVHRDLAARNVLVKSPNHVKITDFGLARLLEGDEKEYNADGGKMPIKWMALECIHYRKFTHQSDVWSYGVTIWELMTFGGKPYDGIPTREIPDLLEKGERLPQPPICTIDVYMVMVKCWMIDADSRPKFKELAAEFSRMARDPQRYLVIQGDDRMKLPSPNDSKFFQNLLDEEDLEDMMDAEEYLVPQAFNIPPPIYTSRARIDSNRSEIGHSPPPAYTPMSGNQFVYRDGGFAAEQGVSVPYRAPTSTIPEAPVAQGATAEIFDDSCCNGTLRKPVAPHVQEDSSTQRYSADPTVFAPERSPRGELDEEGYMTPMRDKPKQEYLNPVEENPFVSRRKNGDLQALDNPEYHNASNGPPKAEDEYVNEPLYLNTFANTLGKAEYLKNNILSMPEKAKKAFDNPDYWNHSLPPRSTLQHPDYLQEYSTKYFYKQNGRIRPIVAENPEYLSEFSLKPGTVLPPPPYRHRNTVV

Hck-1 = target: T11, Hck-1 (Homo sapiens, UniProt P08631); test: Kinase inhibition assay (33P transfer), Hck; settings: Table 6, Hck-1 kinase inhibition class
T11 construct: Kinases are expressed as either kinase domains or full length constructs; made in house
T11 sequence (P08631 whole entry, the tested form may be a part): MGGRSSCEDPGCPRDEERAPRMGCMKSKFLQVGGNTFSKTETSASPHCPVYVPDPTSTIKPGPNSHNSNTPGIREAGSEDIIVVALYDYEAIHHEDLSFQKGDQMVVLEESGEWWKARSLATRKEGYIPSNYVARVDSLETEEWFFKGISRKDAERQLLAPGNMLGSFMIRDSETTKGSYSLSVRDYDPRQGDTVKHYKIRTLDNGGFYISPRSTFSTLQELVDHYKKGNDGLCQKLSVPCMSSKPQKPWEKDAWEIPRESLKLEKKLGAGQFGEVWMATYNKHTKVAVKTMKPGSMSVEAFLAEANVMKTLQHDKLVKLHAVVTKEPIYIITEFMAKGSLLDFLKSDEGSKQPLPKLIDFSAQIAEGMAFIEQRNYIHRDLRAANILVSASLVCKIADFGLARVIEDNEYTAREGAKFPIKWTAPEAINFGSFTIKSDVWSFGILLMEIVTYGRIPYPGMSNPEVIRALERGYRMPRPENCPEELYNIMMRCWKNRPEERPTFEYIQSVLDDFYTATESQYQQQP

c-Met = target: T12, c-Met (Homo sapiens, UniProt P08581); test: Kinase inhibition assay (33P transfer), c-Met; settings: Table 2, kinase inhibition class; read-out: Met-1
T12 construct: Kinases are expressed as either kinase domains or full length constructs; made in house
T12 sequence (P08581 25-1390): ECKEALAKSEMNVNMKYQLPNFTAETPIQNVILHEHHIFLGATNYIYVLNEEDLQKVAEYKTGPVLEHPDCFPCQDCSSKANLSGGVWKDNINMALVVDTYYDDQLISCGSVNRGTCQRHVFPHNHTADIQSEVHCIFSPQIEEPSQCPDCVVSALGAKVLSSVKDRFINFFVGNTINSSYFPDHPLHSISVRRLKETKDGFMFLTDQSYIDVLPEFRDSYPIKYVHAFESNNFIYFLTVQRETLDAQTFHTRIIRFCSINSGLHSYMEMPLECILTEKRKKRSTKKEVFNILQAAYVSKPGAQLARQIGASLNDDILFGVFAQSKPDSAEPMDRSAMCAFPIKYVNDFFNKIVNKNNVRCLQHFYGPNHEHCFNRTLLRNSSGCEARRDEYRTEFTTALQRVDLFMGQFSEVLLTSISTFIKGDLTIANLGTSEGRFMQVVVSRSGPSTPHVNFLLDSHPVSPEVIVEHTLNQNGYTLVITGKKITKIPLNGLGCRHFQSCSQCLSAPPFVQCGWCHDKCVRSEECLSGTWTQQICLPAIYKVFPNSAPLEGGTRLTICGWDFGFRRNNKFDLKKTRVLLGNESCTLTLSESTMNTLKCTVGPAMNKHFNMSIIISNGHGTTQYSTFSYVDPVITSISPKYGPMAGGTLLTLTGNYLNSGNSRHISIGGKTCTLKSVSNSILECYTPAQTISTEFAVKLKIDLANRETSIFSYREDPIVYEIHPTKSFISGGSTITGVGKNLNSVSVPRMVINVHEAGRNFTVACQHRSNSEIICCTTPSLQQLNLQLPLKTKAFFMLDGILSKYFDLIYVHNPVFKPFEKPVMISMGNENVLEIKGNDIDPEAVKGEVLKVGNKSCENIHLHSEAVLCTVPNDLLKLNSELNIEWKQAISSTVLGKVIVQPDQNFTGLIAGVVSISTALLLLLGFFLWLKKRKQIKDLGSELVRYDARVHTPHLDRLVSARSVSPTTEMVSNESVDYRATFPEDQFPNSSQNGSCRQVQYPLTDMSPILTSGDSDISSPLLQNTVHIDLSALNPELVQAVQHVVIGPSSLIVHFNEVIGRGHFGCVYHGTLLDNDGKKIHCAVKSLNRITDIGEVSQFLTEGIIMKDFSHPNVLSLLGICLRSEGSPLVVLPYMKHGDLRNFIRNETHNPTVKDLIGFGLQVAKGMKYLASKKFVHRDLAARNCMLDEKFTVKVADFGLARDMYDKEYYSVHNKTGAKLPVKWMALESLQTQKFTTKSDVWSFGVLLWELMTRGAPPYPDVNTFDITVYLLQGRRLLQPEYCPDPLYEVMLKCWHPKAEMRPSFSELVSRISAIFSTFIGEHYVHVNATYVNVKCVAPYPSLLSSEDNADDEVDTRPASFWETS
How it was run: as §1

Zap-70 = target: T13, Zap-70 (Homo sapiens, UniProt P43403); test: Kinase inhibition assay (33P transfer), Zap-70; settings: read-out: Zap-1
T13 construct: Kinases are expressed as either kinase domains or full length constructs; made in house
T13 sequence (P43403 1-619): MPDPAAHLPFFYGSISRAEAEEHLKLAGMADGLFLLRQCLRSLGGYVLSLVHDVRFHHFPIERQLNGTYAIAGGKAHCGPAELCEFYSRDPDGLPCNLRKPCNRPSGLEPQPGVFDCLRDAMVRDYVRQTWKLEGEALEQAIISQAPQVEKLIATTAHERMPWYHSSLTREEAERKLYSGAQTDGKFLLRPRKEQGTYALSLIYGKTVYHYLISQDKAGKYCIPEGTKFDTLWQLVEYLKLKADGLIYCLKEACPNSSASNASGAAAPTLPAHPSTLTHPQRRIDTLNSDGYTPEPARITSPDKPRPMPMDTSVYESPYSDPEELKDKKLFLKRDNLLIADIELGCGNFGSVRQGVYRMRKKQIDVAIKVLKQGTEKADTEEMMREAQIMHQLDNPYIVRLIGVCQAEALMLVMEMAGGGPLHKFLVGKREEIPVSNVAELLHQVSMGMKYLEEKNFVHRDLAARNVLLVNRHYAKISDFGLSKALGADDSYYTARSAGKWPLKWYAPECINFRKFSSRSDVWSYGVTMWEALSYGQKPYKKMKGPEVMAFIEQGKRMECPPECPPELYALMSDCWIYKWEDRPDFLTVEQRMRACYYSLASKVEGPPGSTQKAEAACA
How it was run: as §2

AKT = target: T14, AKT (Homo sapiens, UniProt Q9Y243); test: Kinase inhibition assay (33P transfer), AKT; settings: Table 2, kinase inhibition class; read-out: AKT3-1
T14 construct: Kinases are expressed as either kinase domains or full length constructs; made in house
How it was run: as §2

IGFR-1 = target: T15, IGFR-1 (Homo sapiens, UniProt P08069); test: Kinase inhibition assay, IGFR-1 (Table 2); settings: Table 2, kinase inhibition class
T15 construct: Kinases are expressed as either kinase domains or full length constructs; made in house

Flt-1 = target: T16, Flt-1 (Homo sapiens, UniProt P17948); test: Kinase inhibition assay (33P transfer), Flt-1
T16 construct: Kinases are expressed as either kinase domains or full length constructs; made in house
How it was run: as §1

Lck = target: T17, Lck (Homo sapiens, UniProt P06239); test: Kinase inhibition assay (33P transfer), Lck; settings: read-out: Lck-1
T17 construct: Kinases are expressed as either kinase domains or full length constructs; made in house
How it was run: as §2

Fyn = target: T18, Fyn (Homo sapiens, UniProt P06241); test: Kinase inhibition assay (33P transfer), Fyn; settings: read-out: Fyn-1
T18 construct: Kinases are expressed as either kinase domains or full length constructs; made in house
How it was run: as §1

ErbB2 = target: T19, ErbB2 (Homo sapiens, UniProt P04626); test: Kinase inhibition assay (33P transfer), ErbB2; settings: read-out: ErbB2-2
T19 construct: Kinases are expressed as either kinase domains or full length constructs; made in house
How it was run: as §1

Compound	IC50 (Tek)	IC50 (Lyn)	IC50 (Kdr)	IC50 (Src)	IC50 (PDGFRB)	IC50 (Itk)	IC50 (FGFR1)	IC50 (Ret-1)	IC50 (EGFR)	IC50 (ErbB4)	IC50 (Hck-1)	IC50 (c-Met)	IC50 (Zap-70)	IC50 (AKT)	IC50 (IGFR-1)	IC50 (Flt-1)	IC50 (Lck)	IC50 (Fyn)	IC50 (ErbB2)
COc1cc(Nc2ncnc(-n3c(NCc4ccccn4)nc4ccccc43)n2)cc(OC)c1OCCN1CCOCC1 [Compound 519]	> 7.71 µM	6 to 7.71 µM	< 0.685 µM	> 7.71 µM	< 0.685 µM	> 7.71 µM	< 0.685 µM	< 0.685 µM	> 7.71 µM	> 7.71 µM	> 7.71 µM	> 7.71 µM	> 7.71 µM	> 7.71 µM	0.685 to 4.11 µM	0.685 to 4.11 µM	0.685 to 4.11 µM	> 7.71 µM	> 7.71 µM
COc1cc(Nc2ncnc(-n3c(NC(CCO)c4ccccc4)nc4ccccc43)n2)cc(OC)c1OC (stereo not shown) [Compound 591]	–	0.758 to 4.55 µM	< 0.758 µM	< 0.758 µM	< 0.758 µM	> 8.53 µM	< 0.758 µM	< 0.758 µM	> 8.53 µM	6.63 to 8.53 µM	0.758 to 4.55 µM	> 8.53 µM	> 8.53 µM	> 8.53 µM	> 8.53 µM	< 0.758 µM	< 0.758 µM	< 0.758 µM	4.55 to 6.63 µM
CCC(Nc1nc2ccccc2n1-c1ncnc(Nc2cc(OC)c(OC)c(OC)c2)n1)c1ccccc1 (stereo not shown) [Compound 592]	–	0.782 to 4.69 µM	< 0.782 µM	0.782 to 4.69 µM	< 0.782 µM	> 8.8 µM	< 0.782 µM	< 0.782 µM	0.782 to 4.69 µM	4.69 to 6.84 µM	> 8.8 µM	> 8.8 µM	> 8.8 µM	> 8.8 µM	> 8.8 µM	0.782 to 4.69 µM	0.782 to 4.69 µM	0.782 to 4.69 µM	0.782 to 4.69 µM
COc1cc(Nc2ncnc(Nc3ccc4c(cnn4Cc4ccccc4)c3)n2)cc(OC)c1OCCN1CCOCC1 [Compound 559]	–	< 0.687 µM	0.687 to 4.12 µM	< 0.687 µM	< 0.687 µM	4.12 to 6.01 µM	0.687 to 4.12 µM	< 0.687 µM	< 0.687 µM	< 0.687 µM	4.12 to 6.01 µM	> 7.72 µM	> 7.72 µM	> 7.72 µM	0.687 to 4.12 µM	> 7.72 µM	< 0.687 µM	< 0.687 µM	< 0.687 µM
COc1cc(Nc2ncnc(-n3c(NC(C)c4ccc(F)cc4)nc4ccccc43)n2)cc(OC)c1OC (stereo not shown) [Compound 605]	–	0.776 to 4.66 µM	< 0.776 µM	> 8.73 µM	< 0.776 µM	> 8.73 µM	< 0.776 µM	< 0.776 µM	> 8.73 µM	> 8.73 µM	> 8.73 µM	> 8.73 µM	> 8.73 µM	> 8.73 µM	> 8.73 µM	0.776 to 4.66 µM	0.776 to 4.66 µM	> 8.73 µM	> 8.73 µM
